In patent US5663148A, “Anaphylatoxin receptor ligands containing lipophilic residues” (Abbott Laboratories, priority 1994, dated 1997):
*1 amine or outer side, *2 acyl side, *3 side chain or, on linkers, in order; H or OH if unused. Where a SMILES comes first, the peptide text is derived from it. [ ]: non-standard residue; d: D form. The star is where a group is joined. X5 = O=C([C@H](CC1CCCCC1)N(Cc1ccccc1)[*:1])[*:2]; Pentanoyl(5-Ph) = O=C(CCCCc1ccccc1)*; d(hhPhe) = N[C@H](CCCc1ccccc1)C(=O)O; X2 = O=C(C(CCOc1ccccc1)N[*:1])[*:2]; hhPhe = N[C@@H](CCCc1ccccc1)C(=O)O; Hydrocinnamoyl = O=C(CCc1ccccc1)*; Cha = N[C@@H](CC1CCCCC1)C(=O)O; X10 = O=C(Cc1c[nH]c2ccccc12)*; PhAc = O=C(Cc1ccccc1)*; Ahp = NCCCCCCC(=O)O; X8 = c1ccc(CCC*)cc1; Bn = c1ccc(C*)cc1

Molecular target: T1, C5a receptor (Homo sapiens, UniProt P21730)
T1 construct: from tissue; host or cells: polymorphonuclear leukocyte (PMNL) membrane fragments
T1 sequence (P21730 1-350): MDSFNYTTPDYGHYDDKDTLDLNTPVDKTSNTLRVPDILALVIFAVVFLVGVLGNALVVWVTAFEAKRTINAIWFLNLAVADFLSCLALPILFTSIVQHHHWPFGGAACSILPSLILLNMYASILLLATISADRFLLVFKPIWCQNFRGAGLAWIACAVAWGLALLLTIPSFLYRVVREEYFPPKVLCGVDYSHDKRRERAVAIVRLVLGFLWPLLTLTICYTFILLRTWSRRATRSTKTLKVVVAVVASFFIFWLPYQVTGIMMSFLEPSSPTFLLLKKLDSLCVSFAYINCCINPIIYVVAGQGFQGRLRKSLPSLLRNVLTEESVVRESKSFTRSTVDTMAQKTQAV
Test: Anaphylatoxin (C5a) receptor binding Ki determination, 125I-C5a on PMNL membrane fragments
Settings: read-out: Ki (In vitro C5a Receptor Binding Potency)
Experimental: The membrane-bound radiolabeled C5a was separated from the free radiolabeled C5a by filtration, and the recovered gamma radioactivity was measured. […] Free and membrane-bound ligand were separated by filtration.

SMILES	Ki
CC(C)C[C@H](NC(=O)CCNC(=O)[C@H](CC1CCCCC1)NC(=O)CCCCCN)C(=O)NC(CCCc1ccccc1)C(=O)N[C@@H](CCCNC(=N)N)C(=O)O (single isomer, unassigned) [Example 114]	18600 nM
CC(C)C[C@H](NC(=O)CCNC(=O)[C@H](CC1CCCCC1)NC(=O)CCCCCN)C(=O)NC(CCCc1ccccc1)C(=O)N[C@@H](CCCNC(=N)N)C(=O)O (single isomer, unassigned) [Example 115]	5600 nM
CC(C)C[C@H](NC(=O)[C@H](C)NC(=O)[C@H](CC1CCCCC1)NC(=O)CCCCCN)C(=O)NC(CCCc1ccccc1)C(=O)N[C@@H](CCCNC(=N)N)C(=O)O (single isomer, unassigned) [Example 121]	7150 nM
CC(C)C[C@H](NC(=O)CNC(=O)[C@H](Cc1ccccc1)NC(=O)CCCCCN)C(=O)NC(CCCc1ccccc1)C(=O)N[C@@H](CCCNC(=N)N)C(=O)O (single isomer, unassigned) [Example 124, N-(6-Aminohexanoyl)-Phenylalanyl-Glycyl-Leucyl{(R/S)-2-Amino-5-phenylpentanoyl}-Arginyl-OH]	34000 nM
CC(C)C[C@H](NC(=O)CNC(=O)[C@H](Cc1ccccc1)NC(=O)CCCCCN)C(=O)NC(CCCc1ccccc1)C(=O)N[C@@H](CCCNC(=N)N)C(=O)O (single isomer, unassigned) [Example 125, N-(6-Aminohexanoyl)-Phenylalanyl-Glycyl-Leucyl-{(R/S)-2-Amino-5-phenylpentanoyl}-Arginyl-OH]	830 nM
CC(C)C[C@H](NC(=O)[C@@H](C)NC(=O)[C@H](CC1CCCCC1)NC(=O)CCCCCN)C(=O)NC(CCCc1ccccc1)C(=O)N[C@@H](CCCNC(=N)N)C(=O)O (single isomer, unassigned) [Example 126]	13400 nM
CC(C)C[C@H](NC(=O)[C@@H](C)NC(=O)[C@H](CC1CCCCC1)NC(=O)CCCCCN)C(=O)NC(CCCc1ccccc1)C(=O)N[C@@H](CCCNC(=N)N)C(=O)O (single isomer, unassigned) [Example 127]	23300 nM
CN[C@@H](Cc1ccccc1)C(=O)N[C@@H](CCCCN)C(=O)N1CCC[C@H]1C(=O)N[C@@H](CC1CCCCC1)C(=O)N[C@@H](C)C(=O)N[C@@H](CC(C)C)C(=O)NC(CCCc1ccccc1)C(=O)N[C@@H](CCCNC(=N)N)C(=O)O (single isomer, unassigned) [Example 128]	27 nM
CN[C@@H](Cc1ccccc1)C(=O)N[C@@H](CCCCN)C(=O)N1CCC[C@H]1C(=O)N[C@@H](CC1CCCCC1)C(=O)N[C@@H](C)C(=O)N[C@@H](CC(C)C)C(=O)NC(CCCc1ccccc1)C(=O)N[C@@H](CCCNC(=N)N)C(=O)O (single isomer, unassigned) [Example 129]	17 nM
CC(C)C[C@H](NC(=O)[C@H](C)NC(=O)[C@H](CC1CCCCC1)NC(=O)CCCCCN)C(=O)NC(CCCc1ccccc1)C(=O)N[C@@H](CCCNC(=N)N)C(=O)O (single isomer, unassigned) [Example 135]	1300 nM
CC(C)C[C@H](NC(=O)CNC(=O)[C@H](CCC1CCCCC1)NC(=O)CCCCCN)C(=O)NC(CCCc1ccccc1)C(=O)N[C@@H](CCCNC(=N)N)C(=O)O (single isomer, unassigned) [Example 137]	4200 nM
CC(C)C[C@H](NC(=O)CNC(=O)[C@H](CCC1CCCCC1)NC(=O)CCCCCN)C(=O)NC(CCCc1ccccc1)C(=O)N[C@@H](CCCNC(=N)N)C(=O)O (single isomer, unassigned) [Example 138]	330 nM
CC(C)C[C@H](NC(=O)CNC(=O)[C@H](CC1CCCCC1)NC(=O)CCCCN)C(=O)NC(CCCc1ccccc1)C(=O)N[C@@H](CCCNC(=N)N)C(=O)O (single isomer, unassigned) [Example 139]	1100 nM
CC(C)C[C@H](NC(=O)CNC(=O)[C@H](CC1CCCCC1)NC(=O)CCCCN)C(=O)NC(CCCc1ccccc1)C(=O)N[C@@H](CCCNC(=N)N)C(=O)O (single isomer, unassigned) [Example 140]	18600 nM
CC(C)C[C@H](NC(=O)CNC(=O)[C@H](CC1CCCCC1)NC(=O)NCc1cccc(CN)c1)C(=O)NC(CCCc1ccccc1)C(=O)N[C@@H](CCCNC(=N)N)C(=O)O (single isomer, unassigned) [Example 141]	16000 nM
CC(C)C[C@H](NC(=O)CNC(=O)[C@H](CC1CCCCC1)NC(=O)NCc1cccc(CN)c1)C(=O)NC(CCCc1ccccc1)C(=O)N[C@@H](CCCNC(=N)N)C(=O)O (single isomer, unassigned) [Example 142]	1300 nM
CC(C)C[C@H](NC(=O)[C@H](C)NC(=O)[C@H](CC1CCCCC1)NC(=O)[C@@H]1CCCN1C(=O)[C@H](CCCCN)NC(=O)[C@@H](N)Cc1ccccc1)C(=O)N[C@H](CCCc1ccccc1)C(=O)N[C@@H](CCCNC(=N)N)C(=O)O [Example 2, H-Phenylalanyl-Lysyl-Prolyl-{(2S)-2-Amino-3-cyclohexylpropanoyl}-Alanyl-Leucyl-{(R)-2-Amino-5-phenylpentanoyl}-Arginyl-OH] (H-FKP[Cha]AL[d(hhPhe)]R-OH)	4.8 nM
CC(C)C[C@H](NC(=O)[C@H](C)NC(=O)[C@H](CC1CCCCC1)NC(=O)[C@@H]1CCCN1C(=O)[C@H](CCCCN)NC(=O)[C@@H](N)Cc1ccccc1)C(=O)N[C@@H](CCCc1ccccc1)C(=O)N[C@@H](CCCNC(=N)N)C(=O)O [Example 3, H-Phenylalanyl-Lysyl-Prolyl-{(2S)-2-Amino-3-cyclohexylpropanoyl}-Alanyl-Leucyl-{(S)-2-Amino-5-phenylpentanoyl}-Arginyl-OH] (H-FKP[Cha]AL[hhPhe]R-OH)	13 nM
CC(C)C[C@H](NC(=O)Cc1c[nH]c2ccccc12)C(=O)N[C@@H](CCCc1ccccc1)C(=O)N[C@@H](CCCNC(=N)N)C(=O)O [Example 20, N-{Indole-3-acetyl}-Leucyl-{(S)-2-Amino-5-phenylpentanoyl}-Arginyl-OH]	6650 nM
CC(C)C[C@H](NC(=O)[C@H](C)NC(=O)[C@H](CC1CCCCC1)NC(=O)[C@@H]1CCCN1C(=O)[C@H](CCCCN)NC(=O)CN)C(=O)N[C@H](CSCCCc1ccccc1)C(=O)N[C@@H](CCCNC(=N)N)C(=O)O [Example 22, H-Glycyl-Lysyl-Prolyl-{(2S)-2-Amino-3-cyclohexylpropanoyl}-Alanyl-Leucyl-DCysteinyl(S-3-phenylpropyl)-Arginyl-OH] (H-GKP[Cha]AL[dC](X8)R-OH)	4700 nM
CC(C)C[C@H](NC(=O)[C@H](C)NC(=O)[C@H](CC1CCCCC1)NC(=O)[C@@H]1CCCN1C(=O)[C@H](CCCCN)NC(=O)CN)C(=O)N[C@H](CSCc1ccccc1)C(=O)N[C@@H](CCCNC(=N)N)C(=O)O [Example 31, H-Glycyl-Lysyl-Propyl-{(2S)-2-Amino-3-cyclohexylpropanoyl}-Alanyl-Leucyl-DCysteinyl(S-benzyl)-Arginyl-OH] (H-GKP[Cha]AL[dC](Bn)R-OH)	1100 nM
CC(C)C[C@H](NC(=O)CCc1c[nH]c2ccccc12)C(=O)N[C@H](CCCc1ccccc1)C(=O)N[C@@H](CCCNC(=N)N)C(=O)O [Example 38, N=(Indole-3-propionyl)-Leucyl-{(R)-2-Amino-5-phenylpentanoyl}-Arginyl-OH]	8400 nM
CC(C)C[C@H](NC(=O)CNC(=O)[C@H](CC1CCCCC1)NC(=O)Cc1ccccc1)C(=O)N[C@H](CCCc1ccccc1)C(=O)N[C@@H](CCCNC(=N)N)C(=O)O [Example 47, N-Phenylacetyl-{(2S)-2-Amino-3-cyclohexylpropanoyl}-Glycyl-Leucyl-{(R)-2-Amino-5-phenylpentanoyl}-Arginyl-OH] (PhAc-[Cha]GL[d(hhPhe)]R-OH)	1100 nM
CC(C)C[C@H](NC(=O)CNC(=O)[C@H](CC1CCCCC1)NC(=O)CCCCCCN)C(=O)NC(CCOc1ccccc1)C(=O)N[C@@H](CCCNC(=N)N)C(=O)O (stereo partly shown) [Example 48] (H-[Ahp][Cha]GL[X2]R-OH)	230 nM
CC(C)C[C@H](NC(=O)CNC(=O)[C@H](CC1CCCCC1)NC(=O)CCc1ccccc1)C(=O)N[C@H](CCCc1ccccc1)C(=O)N[C@@H](CCCNC(=N)N)C(=O)O [Example 49, N-(3-Phenylpropanoyl)-{(2S)-2-Amino-3-cyclohexylpropanoyl}-Glycyl-Leucyl-{(R)-2-Amino-5-phenylpentanoyl}-Arginyl-OH] (Hydrocinnamoyl-[Cha]GL[d(hhPhe)]R-OH)	720 nM
CC(C)C[C@H](NC(=O)CNC(=O)Cc1c[nH]c2ccccc12)C(=O)N[C@H](CCCc1ccccc1)C(=O)N[C@@H](CCCNC(=N)N)C(=O)O [Example 50, N-(Indole-3-acetyl)-Glycyl-Leucyl-{(R)-2-Amino-5-phenylpentanoyl}-Arginyl-O] (X10-GL[d(hhPhe)]R-OH)	190 nM
CC(C)C[C@H](NC(=O)CNC(=O)[C@H](CC1CCCCC1)NC(=O)CCCCc1ccccc1)C(=O)N[C@H](CCCc1ccccc1)C(=O)N[C@@H](CCCNC(=N)N)C(=O)O [Example 62, N-(5-Phenylvaleryl)-{(2S)-2-Amino-3-cyclohexylpropanoyl}-Glycyl-Leucyl-{(R)-2-Amino-5-phenylpentanoyl}-Arginyl-OH] ({Pentanoyl(5-Ph)}-[Cha]GL[d(hhPhe)]R-OH)	1070 nM
CC(C)C[C@H](NC(=O)CNC(=O)[C@H](CC1CCCCC1)NCc1ccccc1)C(=O)N[C@H](CCCc1ccccc1)C(=O)N[C@@H](CCCNC(=N)N)C(=O)O [Example 63, H-{(2S)-2-Amino-3-cyclohexylpropanoyl}(N-Benzyl)-Glycyl-Leucyl-{(R)-2-Amino-5-phenylpentanoyl}-Arginyl-OH] (H-[X5]GL[d(hhPhe)]R-OH)	400 nM
